In series [1] the test system is Mycobacterium tuberculosis. Put plainly: Antimycobacterial activity against Mycobacterium tuberculosis H37Rv by agar dilution method. It counts as functional.
The next series has as its system Vero. Put plainly: Cytotoxicity against african green monkey Vero cells upto 62.5 ug/ml after 72 hrs by MTT assay. It counts as cell-based. To be noted: chlorocebus sabaeus. (In general: Tetrazolium assays rely on reduction of a dye to a coloured formazan, in cell work by metabolically active cells.)

SMILES strings stand for the structures. ≈ marks a conversion by molar mass, not a printed value.

For `COc1cc2c(cc1OC)C1=NN(C(=O)Nc3ccc(F)c(Cl)c3)C(c3ccccc3)C1C2` (configuration not stated), the minimal inhibitory concentration (MIC) (usually the lowest concentration found to suppress growth) in series [1] was found to be 6.25 µM (≈ 2.91 µg/mL). In addition, the Activity entry in the series on Vero is given as “Non-toxic”.
`COc1ccc(C2C3Cc4cc(OC)c(OC)cc4C3=NN2C(=O)Nc2ccc(F)c(Cl)c2)cc1` (configuration not stated) came in with an MIC in series [1] above 6.25 µM.
The compound `COc1cc2c(cc1OC)C1=NN(C(=O)Nc3ccc(F)cc3)C(c3ccncc3)C1C2` (configuration not stated) had an MIC in series [1] of 3.12 µM (≈ 1.35 µg/mL). For the same compound, the Activity result in the series on Vero is “Non-toxic”.
Taken in the same sequence, the figures for `COc1cc2c(cc1OC)C1=NN(C(=O)Nc3ccc(F)cc3)C(c3ccccc3Cl)C1C2` (configuration not stated) were 6.25 µM (≈ 2.91 µg/mL) and “Non-toxic”.
Taken in the same sequence, the figures for `COc1cc2c(cc1OC)C1=NN(C(=O)Nc3ccc(F)cc3)C(c3ccc(F)cc3)C1C2` (configuration not stated) were 0.78 µM (≈ 0.351 µg/mL) and “Non-toxic”.
Taken in the same sequence, the figures for `COc1ccc(C2C3Cc4cc(OC)c(OC)cc4C3=NN2C(=O)Nc2ccc(F)cc2)cc1OC` (configuration not stated) were above 10 µM and “Non-toxic”.
`COc1cc2c(cc1OC)C1=NN(C(=O)Nc3ccc(F)cc3)C(c3ccccc3)C1C2` (configuration not stated) displayed a minimum inhibitory concentration (MIC) in series [1] above 6.25 µM.
Consider `COc1ccc(C2C3Cc4cc(OC)c(OC)cc4C3=NN2C(=O)Nc2ccc(F)cc2)cc1` (configuration not stated), for which, in series [1], the MIC was 10 µM (≈ 4.61 µg/mL). Moreover, the Activity result with Vero is reported as “Non-toxic”.
Taken in the same sequence, the figures for `COc1cc2c(cc1OC)C1=NN(C(=O)Nc3ccc(Br)cc3)C(c3ccncc3)C1C2` (configuration not stated) were 6.25 µM (≈ 3.08 µg/mL) and “Non-toxic”.
As for `COc1cc2c(cc1OC)C1=NN(C(=O)Nc3ccc(Br)cc3)C(c3ccccc3Cl)C1C2` (configuration not stated), the MIC in series [1] is above 6.25 µM.
The compound `COc1cc2c(cc1OC)C1=NN(C(=O)Nc3ccc(Br)cc3)C(c3ccc(F)cc3)C1C2` (configuration not stated) had an MIC in series [1] of 3.12 µM (≈ 1.59 µg/mL). In addition, in the series on Vero, the Activity entry is reported as “Non-toxic”.
Taken in the same sequence, the figures for `COc1ccc(C2C3Cc4cc(OC)c(OC)cc4C3=NN2C(=O)Nc2ccc(Br)cc2)cc1OC` (configuration not stated) were above 10 µM and “Non-toxic”.
In series [1], `COc1cc2c(cc1OC)C1=NN(C(=O)Nc3ccc(Br)cc3)C(c3ccccc3)C1C2` (configuration not stated) had an MIC above 6.25 µM.
The compound `COc1ccc(C2C3Cc4cc(OC)c(OC)cc4C3=NN2C(=O)Nc2ccc(Br)cc2)cc1` (configuration not stated) returned a minimal inhibitory concentration (MIC) in series [1] above 10 µM. Further, the Activity result in the series with Vero is “Non-toxic”.
On to `COc1cc2c(cc1OC)C1=NN(C(=O)Nc3ccc(F)c(Cl)c3)C(c3ccncc3)C1C2` (configuration not stated), for which the MIC in series [1] is above 6.25 µM.
The compound `COc1cc2c(cc1OC)C1=NN(C(=O)Nc3ccc(F)c(Cl)c3)C(c3ccccc3Cl)C1C2` (configuration not stated) gave an MIC in series [1] of 6.25 µM (≈ 3.13 µg/mL). Moreover, the Activity entry in the series on Vero is “Non-toxic”.
`COc1cc2c(cc1OC)C1=NN(C(=O)Nc3ccc(F)c(Cl)c3)C(c3ccc(F)cc3)C1C2` (configuration not stated): the MIC in series [1] amounted to 0.78 µM (≈ 0.377 µg/mL). Besides, the Activity entry with Vero is reported as “Non-toxic”.
As to `COc1ccc(C2C3Cc4cc(OC)c(OC)cc4C3=NN2C(=O)Nc2ccc(F)c(Cl)c2)cc1OC` (configuration not stated), in series [1], the minimum inhibitory concentration (MIC) was above 6.25 µM.
On the same count and under the same terms, the figure for `NNC(=O)c1ccncc1` [ISONIAZID] is 0.78 µM (≈ 0.107 µg/mL).
Still for that read-out and setting: the figure for `CO[C@H]1/C=C/O[C@@]2(C)Oc3c(C)c(O)c4c(O)c(c(/C=N/N5CCN(C)CC5)c(O)c4c3C2=O)NC(=O)/C(C)=C\C=C\[C@H](C)[C@H](O)[C@@H](C)[C@@H](O)[C@@H](C)[C@H](OC(C)=O)[C@@H]1C` [RIFAMPIN] is 0.006 µM (≈ 0.00494 µg/mL).
